Laboratory results published in patent US20190233884A1 (University of Southern California, priority 2016, published 2019).
Entries after “also recorded” stand apart in the source; their conditions may differ.

Tested on: patients with refractory metastatic colorectal cancer (mCRC)
Assay: PFS, OS and disease control in the control cohort of refractory mCRC patients receiving regorafenib (n=52, Italy), by baseline characteristics and SNP genotype
Format: in vivo, human
Conditions: for Median OS (months) / Median PFS (months): ITA REGORA cohort; for Disease Control CR/PR/SD, patients n (%) / Median OS (95% CI) / Median PFS (95% CI) / PD, patients n (%) / HR OS (95% CI) / HR PFS (95% CI) / Median OS / Median PFS / HR OS / HR PFS: control cohort
Procedure: All patients underwent the treatment in salvage-line setting.
(§1) Patients in the control group received 160 mg regorafenib (Bayer, Leverkusen, Germany) once daily from day 1 to 21 every 4 weeks. Doses were adjusted based on haematological and non-haematological adverse events at the treating physician's discretion in accordance with the manufacturer's recommendations. The analyses were approved by the University of Southern California (USC) Institutional Review Board of Medical Sciences and conducted at the USC/Norris Comprehensive Cancer Center in accordance with the Declaration of Helsinki and Good Clinical Practice Guidelines.
(§2) Genomic DNA was extracted from peripheral whole blood in patients of all cohorts using the QIAmp Kit (Qiagen, Valencia, Calif., USA) according to the manufacturer's protocol (www.qiagen.com). The candidate SNPs were genotyped using PCR-based direct DNA sequence analysis by ABI 3100A Capillary Genetic Analyzer and Sequencing Scanner v1.0 (Applied Biosystems). Amplification of extracted DNA was carried out using both forward and reverse primers for each gene polymorphism as shown in Table 1. […] The investigators analyzing SNPs were blinded to the clinical data of the study patients.
The primary endpoint in this study was progression-free survival (PFS), and the secondary endpoints were overall survival (OS) and disease control rate (DCR). PFS was calculated from the date of starting treatment to the first observation of disease progression or death from any cause. If a patient had no disease progression or death, PFS was censored at the date of last follow up. OS was calculated from the date of starting treatment until the date of death from any cause or the date of the last follow-up, at which point OS was censored. The disease control rate (DCR) was defined as the proportion of patients who achieved a stable disease (SD) or […] according to RECISTv1.1. Chi-square test was used to examine the difference in baseline patient characteristics among the three cohorts. Allelic distribution of all SNPs by ethnicity for deviation from Hardy-Weinberg equilibrium and the allelic frequencies of SNPs were tested using the Chi-square tests with one degree of freedom. The associations between candidate SNPs and disease control, and toxicities were examined using contingency tables and Fisher's exact test. The associations of SNPs with PFS and OS were analysed using Kaplan-Meier curves and the log-rank test. Because the true mode of inheritance of candidate SNPs was not established yet, a codominant or dominant genetic model if appropriate was considered.
All patients underwent the treatment in salvage-line setting. […] In all patients, adverse events were graded according to the Common Terminology Criteria for Adverse Events, version 4.0.
as §1, with “events at treating physician's” for “events at the treating physician's”
as §2, with “tested” for “genotyped”, “Biosystems).” for “Biosystems). Amplification of extracted DNA was carried out using both forward and reverse primers for each gene polymorphism as shown in Table 1.”, “data.” for “data of the study patients.”
The primary endpoint in this study was progression-free survival (PFS), and the secondary endpoints were overall survival (OS) and disease control rate (DCR). […]

[1] = ATM rs609429 Any G vs C/C (Ref.), multivariable
[2] = ATM rs609429 Any G vs C/C (Ref.), univariate
[3] = Adjuvant history No vs Yes (Ref.), univariate
[4] = Age ≥61 vs <61 (Ref.), univariate
[5] = CHEK2 rs2267130 Any C vs T/T (Ref.), multivariable
[6] = CHEK2 rs2267130 Any C vs T/T (Ref.), univariate
[7] = CHEK2 rs2267130 C/C vs T/T (Ref.), multivariable
[8] = CHEK2 rs2267130 C/C vs T/T (Ref.), univariate
[9] = CHEK2 rs2267130 T/C vs T/T (Ref.), multivariable
[10] = CHEK2 rs2267130 T/C vs T/T (Ref.), univariate
[11] = KRAS Mutant vs Wild type (Ref.), univariate
[12] = LN metastasis No vs Yes (Ref.), univariate
[13] = Liver metastasis No vs Yes (Ref.), univariate
[14] = Lung metastasis No vs Yes (Ref.), univariate
[15] = Number of metastases >2 vs ≤2 (Ref.), univariate
[16] = Performance status ECOG 1 vs ECOG 0 (Ref.), univariate
[17] = Peritoneal No vs Yes (Ref.), univariate
[18] = Pre-chemo numbers ≥4 vs <4 (Ref.), univariate
[19] = Primary tumor resection No vs Yes (Ref.), univariate

CNC(=O)c1cc(Oc2ccc(NC(=O)Nc3ccc(Cl)c(C(F)(F)F)c3)c(F)c2)ccn1 [regorafenib]
Median OS (months) (ATM rs609429 C/C (n=28)): 4.5 months
Median OS (months) (ATM rs609429 G/C or G/G (n=24)): 5.9 months
Median OS (months) (XRCC3 rs861539 G/A (n=37)): 5.9 months
Median PFS (months) (XRCC3 rs861539 G/A (n=37)): 1.9 months
Median OS (months) (XRCC3 rs861539 G/G (n=15)): 4.1 months
Median PFS (months) (XRCC3 rs861539 G/G (n=15)): 1.7 months
association of candidate SNPs with PFS or OS (control cohort receiving regorafenib without previous TAS-102, uni- and multivariate analyses): no significant differences; also recorded: no significant association
Disease Control CR/PR/SD, patients n (%) (ATM rs609429 Any G): 9 (38%)
Median OS (95% CI) (ATM rs609429 Any G): 5.9 (3.5, 10.2) months
Median PFS (95% CI) (ATM rs609429 Any G): 2.0 (1.7, 3.1) months
PD, patients n (%) (ATM rs609429 Any G): 15 (63%)
HR OS (95% CI) [1]: 0.84 (0.47, 1.48)
HR PFS (95% CI) [1]: 1.06 (0.60, 1.87)
HR OS (95% CI) [2]: 1.91 (0.44, 8.31)
HR PFS (95% CI) [2]: 0.95 (0.55, 1.66)
Disease Control CR/PR/SD, patients n (%) (ATM rs609429 C/C): 8 (32%)
Median OS (95% CI) (ATM rs609429 C/C): 4.6 (2.6, 7.6) months
Median PFS (95% CI) (ATM rs609429 C/C): 1.9 (1.6, 2.8) months
PD, patients n (%) (ATM rs609429 C/C): 17 (68%)
Disease Control CR/PR/SD, patients n (%) (ATM rs609429 C/G): 8 (38%)
PD, patients n (%) (ATM rs609429 C/G): 13 (62%)
Disease Control CR/PR/SD, patients n (%) (ATM rs609429 G/G): 1 (33%)
PD, patients n (%) (ATM rs609429 G/G): 2 (67%)
Median OS (Adjuvant history No): 5.9 months
Median PFS (Adjuvant history No): 2.0 months
HR OS [3]: 0.59
HR PFS [3]: 0.71
Median OS (Adjuvant history Yes): 3.9 months
Median PFS (Adjuvant history Yes): 1.8 months
Median OS (Age <61): 5.1 months
Median PFS (Age <61): 1.8 months
Median OS (Age ≥61): 5.8 months
Median PFS (Age ≥61): 2.1 months
HR OS [4]: 0.74
HR PFS [4]: 0.58
Disease Control CR/PR/SD, patients n (%) (CHEK2 rs2267130 Any C): 13 (36%)
Median OS (95% CI) (CHEK2 rs2267130 Any C): 5.9 (4.4, 7.9) months
Median PFS (95% CI) (CHEK2 rs2267130 Any C): 1.8 (1.7, 2.8) months
PD, patients n (%) (CHEK2 rs2267130 Any C): 23 (64%)
HR OS (95% CI) [5]: 0.81 (0.42, 1.54)
HR PFS (95% CI) [5]: 1.22 (0.65, 2.28)
HR OS (95% CI) [6]: 0.80 (0.44, 1.48)
HR PFS (95% CI) [6]: 1.07 (0.58, 1.95)
Disease Control CR/PR/SD, patients n (%) (CHEK2 rs2267130 C/C): 3 (27%)
Median OS (95% CI) (CHEK2 rs2267130 C/C): 5.7 (2.0, 7.8) months
Median PFS (95% CI) (CHEK2 rs2267130 C/C): 2.0 (1.5, 2.7) months
PD, patients n (%) (CHEK2 rs2267130 C/C): 8 (73%)
HR OS (95% CI) [7]: 0.90 (0.41, 2.00)
HR PFS (95% CI) [7]: 1.35 (0.61, 2.99)
HR OS (95% CI) [8]: 0.89 (0.41, 1.97)
HR PFS (95% CI) [8]: 1.18 (0.54, 2.59)
Disease Control CR/PR/SD, patients n (%) (CHEK2 rs2267130 T/C): 10 (40%)
Median OS (95% CI) (CHEK2 rs2267130 T/C): 6.2 (2.4, 8.9) months
Median PFS (95% CI) (CHEK2 rs2267130 T/C): 1.8 (1.6, 3.1) months
PD, patients n (%) (CHEK2 rs2267130 T/C): 15 (60%)
HR OS (95% CI) [9]: 0.76 (0.38, 1.53)
HR PFS (95% CI) [9]: 1.15 (0.58, 2.27)
HR OS (95% CI) [10]: 0.77 (0.40, 1.48)
HR PFS (95% CI) [10]: 1.02 (0.54, 1.95)
Disease Control CR/PR/SD, patients n (%) (CHEK2 rs2267130 T/T): 4 (31%)
Median OS (95% CI) (CHEK2 rs2267130 T/T): 3.8 (2.2, 8.0) months
Median PFS (95% CI) (CHEK2 rs2267130 T/T): 1.9 (1.4, 3.4) months
PD, patients n (%) (CHEK2 rs2267130 T/T): 9 (69%)
Median OS (KRAS Mutant): 4.8 months
Median PFS (KRAS Mutant): 2.0 months
HR OS [11]: 0.93
HR PFS [11]: 1.05
Median OS (KRAS Wild type): 6.3 months
Median PFS (KRAS Wild type): 1.9 months
Median OS (LN metastasis No): 7.7 months
Median PFS (LN metastasis No): 2.8 months
HR OS [12]: 0.62
HR PFS [12]: 0.52
Median OS (LN metastasis Yes): 3.8 months
Median PFS (LN metastasis Yes): 1.8 months
Median OS (Liver metastasis No): 6.6 months
Median PFS (Liver metastasis No): 4.8 months
HR OS [13]: 0.61
HR PFS [13]: 0.46
Median OS (Liver metastasis Yes): 4.7 months
Median PFS (Liver metastasis Yes): 1.9 months
Median OS (Lung metastasis No): 3.7 months
Median PFS (Lung metastasis No): 2.0 months
HR OS [14]: 1.24
HR PFS [14]: 1.17
Median OS (Lung metastasis Yes): 5.9 months
Median PFS (Lung metastasis Yes): 1.9 months
Median OS (Number of metastases >2): 4.0 months
Median PFS (Number of metastases >2): 1.9 months
HR OS [15]: 1.59
HR PFS [15]: 1.86
Median OS (Number of metastases ≤2): 6.3 months
Median PFS (Number of metastases ≤2): 2.8 months
Median OS (Performance status ECOG 0): 5.9 months
Median PFS (Performance status ECOG 0): 2.1 months
Median OS (Performance status ECOG 1): 2.4 months
Median PFS (Performance status ECOG 1): 1.2 months
HR OS [16]: 2.09
HR PFS [16]: 2.27
Median OS (Peritoneal No): 5.5 months
Median PFS (Peritoneal No): 2.0 months
HR OS [17]: 0.82
HR PFS [17]: 0.87
Median OS (Peritoneal Yes): 5.1 months
Median PFS (Peritoneal Yes): 1.9 months
Median OS (Pre-chemo numbers <4): 6.0 months
Median PFS (Pre-chemo numbers <4): 2.0 months
Median OS (Pre-chemo numbers ≥4): 4.7 months
Median PFS (Pre-chemo numbers ≥4): 1.8 months
HR OS [18]: 1.16
HR PFS [18]: 0.95
Median OS (Primary tumor resection No): 4.2 months
Median PFS (Primary tumor resection No): 2.0 months
HR OS [19]: 1.04
HR PFS [19]: 0.79
Median OS (Primary tumor resection Yes): 5.6 months
Median PFS (Primary tumor resection Yes): 1.9 months
